Literature values in patent US8445706B2, “Unnatural amino acids capable of covalently modifying protein phosphatases and their use as general and specific inhibitors and probes” (Board of Trustees of Northern Illinois University, priority 2008, dated 2013).

Settings: neutral or basic aqueous solutions; cited from earlier work

In the case of `O=P(O)(O)C(Br)c1ccccc1` (stereo not drawn) [α-bromobenzylphosphonate], the solvolysis is given as “undergoes solvolysis”.
